Assay results published in ChEMBL document CHEMBL3885881, “DrugMatrix”.

Species on record: Rattus norvegicus
Assay: DrugMatrix - Regimen: Daily Repeat
Type: toxicity, organism-based, Sprague-Dawley
Design: regimen Daily Repeat, gender Male, age 6-8 weeks
Conditions: in vivo, po, […], route oral GAVAGE, dose 0.28 mg/Kg, dose level Low; for ABSOLUTE BASOPHIL / ABSOLUTE EOSINOPHIL / ABSOLUTE LYMPHOCYTE / ABSOLUTE MONOCYTE / ABSOLUTE SEGMENTED NEUTROPHIL / BASOPHIL / EOSINOPHIL / ERYTHROCYTE COUNT / HEMATOCRIT / HEMOGLOBIN / LEUKOCYTE COUNT / LYMPHOCYTE / MEAN CORPUSCULAR HEMOGLOBIN / MEAN CORPUSCULAR HEMOGLOBIN CONCENTRATION / MEAN CORPUSCULAR VOLUME / MONOCYTE / NEUTROPHIL / NUCLEATED RED BLOOD CELLS / PLATELET COUNT: tissue Blood; for ALANINE AMINOTRANSFERASE / ALBUMIN / ALKALINE PHOSPHATASE / ASPARTATE AMINOTRANSFERASE / BLOOD UREA NITROGEN / CARBON DIOXIDE / CHLORIDE / CHOLESTEROL / CREATINE PHOSPHOKINASE / CREATININE / GLUCOSE / LACTATE DEHYDROGENASE / LIPASE / PHOSPHORUS / POTASSIUM / SODIUM / TOTAL BILIRUBIN / TOTAL PROTEIN / URIC ACID: tissue Plasma

Compound: CC(C(=O)O)c1ccc(CC2CCCC2=O)cc1 (stereo unspecified) [LOXOPROFEN]
- ABSOLUTE BASOPHIL (72 h, time 3 day): 0 CELLS/uL
- ABSOLUTE EOSINOPHIL (72 h, time 3 day): 0 CELLS/uL
- ABSOLUTE LYMPHOCYTE (72 h, time 3 day): 8216 CELLS/uL
- ABSOLUTE MONOCYTE (72 h, time 3 day): 105.67 CELLS/uL
- ABSOLUTE SEGMENTED NEUTROPHIL (72 h, time 3 day): 1111.67 CELLS/uL
- BASOPHIL (72 h, time 3 day): 0%
- EOSINOPHIL (72 h, time 3 day): 0%
- ERYTHROCYTE COUNT (72 h, time 3 day): 5.18 x10E6/uL
- HEMATOCRIT (72 h, time 3 day): 32.3%
- HEMOGLOBIN (72 h, time 3 day): 13.07 G/DL
- LEUKOCYTE COUNT (72 h, time 3 day): 9.43 x10E3/uL
- LYMPHOCYTE (72 h, time 3 day): 87.33%
- MEAN CORPUSCULAR HEMOGLOBIN (72 h, time 3 day): 25.23 pg
- MEAN CORPUSCULAR HEMOGLOBIN CONCENTRATION (72 h, time 3 day): 40.47 G/DL
- MEAN CORPUSCULAR VOLUME (72 h, time 3 day): 62.37 fL
- MONOCYTE (72 h, time 3 day): 1%
- NEUTROPHIL (72 h, time 3 day): 11.67%
- NUCLEATED RED BLOOD CELLS (72 h, time 3 day): 0 /100WBC
- PLATELET COUNT (72 h, time 3 day): 1232.67 x10E3/uL
- ALANINE AMINOTRANSFERASE (72 h, time 3 day): 78.33 u/L
- ALBUMIN (72 h, time 3 day): 4 G/DL
- ALKALINE PHOSPHATASE (72 h, time 3 day): 425 u/L
- ASPARTATE AMINOTRANSFERASE (72 h, time 3 day): 95.33 u/L
- BLOOD UREA NITROGEN (72 h, time 3 day): 17 mg/dL
- CARBON DIOXIDE (72 h, time 3 day): 30 mmol/L
- CHLORIDE (72 h, time 3 day): 101.33 MEQ/L
- CHOLESTEROL (72 h, time 3 day): 69 mg/dL
- CREATINE PHOSPHOKINASE (72 h, time 3 day): 495.67 u/L
- CREATININE (72 h, time 3 day): 0.2 mg/dL
- GLUCOSE (72 h, time 3 day): 186.33 mg/dL
- LACTATE DEHYDROGENASE (72 h, time 3 day): 214.33 u/L
- LIPASE (72 h, time 3 day): 8.67 u/L
- PHOSPHORUS (72 h, time 3 day): 12.6 mg/dL
- POTASSIUM (72 h, time 3 day): 6.25 MEQ/L
- SODIUM (72 h, time 3 day): 143.63 MEQ/L
- TOTAL BILIRUBIN (72 h, time 3 day): 0.17 mg/dL
- TOTAL PROTEIN (72 h, time 3 day): 5.5 G/DL
- URIC ACID (72 h, time 3 day): 1.43 mg/dL
- ABSOLUTE BASOPHIL (120 h, time 5 day): 0 CELLS/uL
- ABSOLUTE EOSINOPHIL (120 h, time 5 day): 43.33 CELLS/uL
- ABSOLUTE LYMPHOCYTE (120 h, time 5 day): 10902.67 CELLS/uL
- ABSOLUTE MONOCYTE (120 h, time 5 day): 142 CELLS/uL
- ABSOLUTE SEGMENTED NEUTROPHIL (120 h, time 5 day): 678.67 CELLS/uL
- BASOPHIL (120 h, time 5 day): 0%
- EOSINOPHIL (120 h, time 5 day): 0.33%
- ERYTHROCYTE COUNT (120 h, time 5 day): 5.61 x10E6/uL
- HEMATOCRIT (120 h, time 5 day): 35.07%
- HEMOGLOBIN (120 h, time 5 day): 14.17 G/DL
- LEUKOCYTE COUNT (120 h, time 5 day): 11.77 x10E3/uL
- LYMPHOCYTE (120 h, time 5 day): 93%
- MEAN CORPUSCULAR HEMOGLOBIN (120 h, time 5 day): 25.23 pg
- MEAN CORPUSCULAR HEMOGLOBIN CONCENTRATION (120 h, time 5 day): 40.4 G/DL
- MEAN CORPUSCULAR VOLUME (120 h, time 5 day): 62.43 fL
- MONOCYTE (120 h, time 5 day): 1.33%
- NEUTROPHIL (120 h, time 5 day): 5.33%
- NUCLEATED RED BLOOD CELLS (120 h, time 5 day): 0 /100WBC
- PLATELET COUNT (120 h, time 5 day): 984.33 x10E3/uL
- ALANINE AMINOTRANSFERASE (120 h, time 5 day): 57 u/L
- ALBUMIN (120 h, time 5 day): 4.3 G/DL
- ALKALINE PHOSPHATASE (120 h, time 5 day): 291 u/L
- ASPARTATE AMINOTRANSFERASE (120 h, time 5 day): 85.33 u/L
- BLOOD UREA NITROGEN (120 h, time 5 day): 18 mg/dL
- CARBON DIOXIDE (120 h, time 5 day): 26.67 mmol/L
- CHLORIDE (120 h, time 5 day): 103.67 MEQ/L
- CHOLESTEROL (120 h, time 5 day): 68.67 mg/dL
- CREATINE PHOSPHOKINASE (120 h, time 5 day): 238 u/L
- CREATININE (120 h, time 5 day): 0.23 mg/dL
- GLUCOSE (120 h, time 5 day): 187.33 mg/dL
- LACTATE DEHYDROGENASE (120 h, time 5 day): 153.33 u/L
- LIPASE (120 h, time 5 day): 11 u/L
- PHOSPHORUS (120 h, time 5 day): 11.87 mg/dL
- POTASSIUM (120 h, time 5 day): 5.74 MEQ/L
- SODIUM (120 h, time 5 day): 144.4 MEQ/L
- TOTAL BILIRUBIN (120 h, time 5 day): 0.2 mg/dL
- TOTAL PROTEIN (120 h, time 5 day): 5.83 G/DL
- URIC ACID (120 h, time 5 day): 1.6 mg/dL
